# Target: T1, NOD1 (Homo sapiens, UniProt Q9Y239)
# T1 construct: host or cells: HEK-Blue hNOD1 cells (HEK293-derived, with NF-κB-inducible SEAP reporter)
# T1 sequence (Q9Y239 1-953): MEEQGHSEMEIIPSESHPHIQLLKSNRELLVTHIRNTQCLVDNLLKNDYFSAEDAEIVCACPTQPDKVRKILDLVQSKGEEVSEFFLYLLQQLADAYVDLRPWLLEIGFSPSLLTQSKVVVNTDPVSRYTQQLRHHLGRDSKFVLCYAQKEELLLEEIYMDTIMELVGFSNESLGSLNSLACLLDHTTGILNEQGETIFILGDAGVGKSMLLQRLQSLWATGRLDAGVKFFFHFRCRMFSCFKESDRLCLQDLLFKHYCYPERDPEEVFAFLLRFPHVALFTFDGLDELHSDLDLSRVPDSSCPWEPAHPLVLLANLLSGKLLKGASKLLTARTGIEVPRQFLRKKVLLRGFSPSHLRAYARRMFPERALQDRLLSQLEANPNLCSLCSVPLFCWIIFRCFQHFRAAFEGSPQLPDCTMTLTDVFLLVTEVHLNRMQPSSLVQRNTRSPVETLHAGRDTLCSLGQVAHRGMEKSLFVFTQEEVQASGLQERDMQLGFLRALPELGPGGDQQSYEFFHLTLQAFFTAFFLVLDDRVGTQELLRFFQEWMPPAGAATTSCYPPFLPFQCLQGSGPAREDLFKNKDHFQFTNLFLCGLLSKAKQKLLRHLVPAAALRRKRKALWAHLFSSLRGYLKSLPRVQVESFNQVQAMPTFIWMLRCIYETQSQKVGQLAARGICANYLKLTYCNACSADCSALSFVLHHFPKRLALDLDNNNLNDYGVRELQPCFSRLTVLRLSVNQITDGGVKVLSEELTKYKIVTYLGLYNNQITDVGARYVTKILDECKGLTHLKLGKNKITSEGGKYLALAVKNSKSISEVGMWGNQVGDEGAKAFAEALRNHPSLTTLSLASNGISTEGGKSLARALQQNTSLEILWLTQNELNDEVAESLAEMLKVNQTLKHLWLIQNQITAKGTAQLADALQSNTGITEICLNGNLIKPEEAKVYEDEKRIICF
# Assay: NOD1-induced NF-κB activation assay (SEAP reporter) in HEK-Blue hNOD1 cells
# Type: cell-based
# Details: 16 h; for NOD1 stimulation potency (NF-κB activity): 0.1 μM, FIG. 1, relative to iE-DAP, C12-iE-DAP, Tri-DAP
# Experimental: Measurement of NOD1-induced NF-κB Activation Assay
# HEK-Blue™ hNOD1 Cells (Invivogen; San Diego, CA, U.S.) were cultured in accordance with the manufacturer's instructions. HEK-Blue™ hNOD1 Cells was assayed for NF-κB transcriptional activity changes upon incubation (3.6×10^5 cells/mL) with iE-DAP, C12-iE-DAP, Tri-DAP (Invivogen, San Diego, CA, U.S.) and other NOD1 agonistic compounds (0.1-10 μM) for 16 h. Secreted embryonic alkaline phosphatase (SEAP) activity was determined in the supernatant in accordance with the manufacturer's instructions. An amount of 20 μL of SEAP-inducer compound or negative control was added to 180 μL of cells in HEK-Blue™ detection medium and incubated at 37° C. for 16 h. Absorbance was measured on a SpectraMax M5 (Molecular Devices, Sunnyvale, CA, U.S.) at 640 nm.
SMILES,NOD1 stimulation potency (NF-κB activity),"fold increase of NF-κB activity (1 μM, FIGS. 2 and 3)"
CC(NC(=O)Cc1ccc(-c2ccccc2)cc1)C(=O)NC(CCC(=O)NC(CO)CCCC(N)C(=O)O)C(=O)O (stereo not drawn) [Compound 14h],decreased dramatically,
C[C@H](N)C(=O)N[C@H](CCC(=O)N[C@H](CO)CCC[C@@H](N)C(=O)O)C(=O)O [Compound 6],,20 fold
COc1ccc(CC(=O)NC(C)C(=O)NC(CCC(=O)NC(CO)CCCC(N)C(=O)O)C(=O)O)cc1 (stereo not drawn) [Compound 14f],decreased dramatically,
